Experimental data published in patent publication US8492374B2, “Azaazulene compounds” (Industrial Technology Research Institute, priority 2009, dated 2013).

Assays:
FLT3 = FLT3 (Homo sapiens, UniProt P36888); test: Kinase panel assay (SelectScreen Kinase Profiling, Invitrogen); assay type: biochemical; conditions: 1000 nM of compound B26
Method: (§1) The kinase panel assay of compound B26 of this invention was performed by SelectScreen® Kinase Profiling Services of Invitrogen. The inhibitory effects of 1000 nM of compound B26 against various kinases whom shown >50% inhibitory effects are summarized in following Table 5.

FGFR3 = FGFR3 (Homo sapiens, UniProt P22607); test: as above; assay type: biochemical; conditions: 1000 nM of compound B26
Sequence of FGFR3 (P22607 23-806): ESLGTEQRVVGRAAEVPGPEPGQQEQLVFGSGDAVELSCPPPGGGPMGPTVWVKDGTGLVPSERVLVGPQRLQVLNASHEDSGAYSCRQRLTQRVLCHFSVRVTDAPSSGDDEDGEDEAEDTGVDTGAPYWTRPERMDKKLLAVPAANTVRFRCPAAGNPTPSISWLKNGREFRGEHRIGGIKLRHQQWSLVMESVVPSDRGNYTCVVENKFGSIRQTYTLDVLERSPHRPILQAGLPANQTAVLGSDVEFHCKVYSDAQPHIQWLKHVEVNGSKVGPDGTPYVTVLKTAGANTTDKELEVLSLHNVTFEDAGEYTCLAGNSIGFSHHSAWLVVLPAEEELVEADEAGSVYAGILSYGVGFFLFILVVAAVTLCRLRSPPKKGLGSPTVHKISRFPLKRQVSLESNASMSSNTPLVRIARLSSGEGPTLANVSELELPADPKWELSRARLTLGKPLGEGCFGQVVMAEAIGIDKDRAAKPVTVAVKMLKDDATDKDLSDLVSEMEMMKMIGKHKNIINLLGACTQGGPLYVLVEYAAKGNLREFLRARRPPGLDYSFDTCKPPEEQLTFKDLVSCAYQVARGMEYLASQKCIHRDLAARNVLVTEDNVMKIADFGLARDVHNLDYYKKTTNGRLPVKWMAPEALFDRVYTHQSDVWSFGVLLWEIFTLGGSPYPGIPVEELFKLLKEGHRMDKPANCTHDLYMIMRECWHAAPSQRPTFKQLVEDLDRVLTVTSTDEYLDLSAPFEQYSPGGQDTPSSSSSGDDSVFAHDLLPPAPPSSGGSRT
Method: as §1

FGFR1 = FGFR1 (Homo sapiens, UniProt P11362); test: as above; assay type: biochemical; conditions: 1000 nM of compound B26
Sequence of FGFR1 (P11362 22-822): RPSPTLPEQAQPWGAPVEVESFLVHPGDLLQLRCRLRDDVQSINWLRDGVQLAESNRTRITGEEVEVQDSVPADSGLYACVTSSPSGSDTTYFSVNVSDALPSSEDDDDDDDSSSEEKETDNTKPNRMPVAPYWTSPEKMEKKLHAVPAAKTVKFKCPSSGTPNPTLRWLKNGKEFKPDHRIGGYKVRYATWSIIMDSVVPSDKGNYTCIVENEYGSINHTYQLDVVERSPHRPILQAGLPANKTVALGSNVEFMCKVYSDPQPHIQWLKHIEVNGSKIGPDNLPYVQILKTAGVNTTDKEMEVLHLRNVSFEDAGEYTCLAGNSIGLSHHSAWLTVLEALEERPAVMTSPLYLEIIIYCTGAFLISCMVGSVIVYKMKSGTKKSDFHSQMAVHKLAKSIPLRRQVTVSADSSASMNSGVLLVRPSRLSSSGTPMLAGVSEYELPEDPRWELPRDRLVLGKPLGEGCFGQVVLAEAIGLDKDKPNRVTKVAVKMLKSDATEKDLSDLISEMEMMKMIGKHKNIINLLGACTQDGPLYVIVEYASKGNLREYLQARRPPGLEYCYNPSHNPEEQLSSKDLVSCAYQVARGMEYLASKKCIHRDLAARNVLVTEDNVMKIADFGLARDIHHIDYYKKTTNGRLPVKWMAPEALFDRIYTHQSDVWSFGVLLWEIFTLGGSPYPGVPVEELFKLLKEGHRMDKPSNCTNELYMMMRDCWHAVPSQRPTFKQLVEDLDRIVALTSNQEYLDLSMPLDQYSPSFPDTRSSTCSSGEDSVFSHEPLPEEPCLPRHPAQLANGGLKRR
Method: as §1

BLK = BLK (Homo sapiens, UniProt P51451); test: as above; assay type: biochemical; conditions: 1000 nM of compound B26
Sequence of BLK (P51451 whole entry): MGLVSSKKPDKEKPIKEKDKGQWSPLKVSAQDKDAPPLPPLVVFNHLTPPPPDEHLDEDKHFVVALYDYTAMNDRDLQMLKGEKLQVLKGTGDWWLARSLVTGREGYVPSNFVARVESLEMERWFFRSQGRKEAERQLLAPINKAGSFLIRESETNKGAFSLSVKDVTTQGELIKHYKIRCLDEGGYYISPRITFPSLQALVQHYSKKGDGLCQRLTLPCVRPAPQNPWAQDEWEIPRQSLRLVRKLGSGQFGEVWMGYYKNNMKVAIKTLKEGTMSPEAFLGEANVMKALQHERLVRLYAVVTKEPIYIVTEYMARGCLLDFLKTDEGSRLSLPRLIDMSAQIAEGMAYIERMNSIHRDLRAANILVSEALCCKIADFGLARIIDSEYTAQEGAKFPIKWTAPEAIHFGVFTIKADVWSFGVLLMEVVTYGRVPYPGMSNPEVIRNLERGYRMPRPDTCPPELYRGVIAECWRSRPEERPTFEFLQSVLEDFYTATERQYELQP
Method: as §1

RET = RET (Homo sapiens, UniProt P07949); test: as above; assay type: biochemical; conditions: 1000 nM of compound B26
Sequence of RET (P07949 29-1114): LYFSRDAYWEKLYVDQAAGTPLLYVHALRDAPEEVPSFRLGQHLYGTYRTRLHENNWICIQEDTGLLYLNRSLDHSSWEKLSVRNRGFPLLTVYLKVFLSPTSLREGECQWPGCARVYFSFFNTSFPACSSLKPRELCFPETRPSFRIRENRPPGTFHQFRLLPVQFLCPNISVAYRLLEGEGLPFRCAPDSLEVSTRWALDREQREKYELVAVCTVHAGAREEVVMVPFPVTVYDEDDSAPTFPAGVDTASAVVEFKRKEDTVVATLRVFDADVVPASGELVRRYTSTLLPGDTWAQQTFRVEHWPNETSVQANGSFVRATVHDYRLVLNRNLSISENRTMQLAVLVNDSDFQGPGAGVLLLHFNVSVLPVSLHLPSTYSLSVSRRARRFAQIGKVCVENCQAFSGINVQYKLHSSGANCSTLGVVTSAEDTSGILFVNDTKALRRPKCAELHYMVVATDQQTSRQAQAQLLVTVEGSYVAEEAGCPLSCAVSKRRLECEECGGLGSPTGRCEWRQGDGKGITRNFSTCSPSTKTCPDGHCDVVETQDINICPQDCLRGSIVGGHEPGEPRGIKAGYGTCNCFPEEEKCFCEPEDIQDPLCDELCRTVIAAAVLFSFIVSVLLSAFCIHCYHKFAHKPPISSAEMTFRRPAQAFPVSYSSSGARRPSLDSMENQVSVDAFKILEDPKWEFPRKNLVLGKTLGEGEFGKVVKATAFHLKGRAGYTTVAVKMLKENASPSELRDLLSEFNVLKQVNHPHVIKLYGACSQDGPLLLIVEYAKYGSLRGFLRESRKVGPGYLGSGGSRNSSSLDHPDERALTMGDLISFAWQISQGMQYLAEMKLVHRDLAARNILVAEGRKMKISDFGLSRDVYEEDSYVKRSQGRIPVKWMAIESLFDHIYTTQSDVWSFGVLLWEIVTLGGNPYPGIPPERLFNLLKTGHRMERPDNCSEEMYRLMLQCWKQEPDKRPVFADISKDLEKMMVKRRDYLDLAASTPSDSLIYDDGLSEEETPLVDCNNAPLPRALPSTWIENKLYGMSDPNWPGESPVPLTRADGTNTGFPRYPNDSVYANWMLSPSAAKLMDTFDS
Method: as §1

AMPK A2/B1/G1 = AMPK A2/B1/G1 (Homo sapiens, UniProt P54646); test: as above; assay type: biochemical; conditions: 1000 nM of compound B26
Method: as §1

LYN A = LYN A (Homo sapiens, UniProt P07948); test: as above; assay type: biochemical; conditions: 1000 nM of compound B26
Method: as §1

FLT4 (VEGFR3) = FLT4 (VEGFR3) (Homo sapiens, UniProt P35916); test: as above; assay type: biochemical; conditions: 1000 nM of compound B26
Method: as §1

KIT = KIT (Homo sapiens, UniProt P10721); test: as above; assay type: biochemical; conditions: 1000 nM of compound B26
Sequence of KIT (P10721 26-976): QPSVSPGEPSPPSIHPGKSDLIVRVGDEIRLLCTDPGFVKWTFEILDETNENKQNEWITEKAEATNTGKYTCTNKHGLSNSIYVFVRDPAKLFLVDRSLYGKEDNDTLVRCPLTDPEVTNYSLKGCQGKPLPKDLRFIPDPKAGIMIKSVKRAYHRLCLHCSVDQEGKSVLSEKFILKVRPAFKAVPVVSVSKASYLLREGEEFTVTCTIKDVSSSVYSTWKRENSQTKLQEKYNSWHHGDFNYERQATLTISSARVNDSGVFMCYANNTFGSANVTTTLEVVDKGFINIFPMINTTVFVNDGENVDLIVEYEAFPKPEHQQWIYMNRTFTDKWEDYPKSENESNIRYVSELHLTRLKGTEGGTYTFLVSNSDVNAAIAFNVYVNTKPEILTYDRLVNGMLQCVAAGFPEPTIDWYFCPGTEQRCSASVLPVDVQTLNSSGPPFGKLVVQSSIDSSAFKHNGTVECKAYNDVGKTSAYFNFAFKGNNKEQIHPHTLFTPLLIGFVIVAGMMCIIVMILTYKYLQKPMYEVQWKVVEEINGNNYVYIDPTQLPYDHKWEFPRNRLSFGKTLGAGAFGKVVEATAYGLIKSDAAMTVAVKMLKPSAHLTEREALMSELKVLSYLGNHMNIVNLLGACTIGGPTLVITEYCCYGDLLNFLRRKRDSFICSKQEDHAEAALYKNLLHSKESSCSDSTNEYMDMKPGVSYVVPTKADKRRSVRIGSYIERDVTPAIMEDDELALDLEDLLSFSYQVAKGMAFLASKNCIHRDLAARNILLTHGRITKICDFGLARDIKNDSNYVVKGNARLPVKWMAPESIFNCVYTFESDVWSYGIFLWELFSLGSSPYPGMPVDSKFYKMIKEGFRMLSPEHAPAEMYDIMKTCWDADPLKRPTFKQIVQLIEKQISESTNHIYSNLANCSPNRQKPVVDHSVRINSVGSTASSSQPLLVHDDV
Method: as §1

FGFR3 K650E = FGFR3 K650E (Homo sapiens, UniProt P22607, K650E); test: as above; assay type: biochemical; conditions: 1000 nM of compound B26
Sequence of FGFR3 K650E (P22607 23-806 K650E): as the sequence (P22607 23-806) above, with K628E counted along it
Method: as §1

RET Y791F = RET Y791F (Homo sapiens, UniProt P07949, Y791F); test: as above; assay type: biochemical; conditions: 1000 nM of compound B26
Sequence of RET Y791F (P07949 29-1114 Y791F): as the sequence (P07949 29-1114) above, with Y763F counted along it
Method: as §1

KDR (VEGFR2) = KDR (VEGFR2) (Homo sapiens, UniProt P35968); test: as above; assay type: biochemical; conditions: 1000 nM of compound B26
Method: as §1

KDR kinase = target: T1, KDR kinase (Homo sapiens, UniProt P35968); test: KDR kinase DELFIA assay (HTScan VEGFR-2 Kinase Assay Kit); assay type: biochemical; conditions: 20 uM ATP
T1 construct: human VEGFR-2 (Val789-Val1356); GST (N); purchased Cell Signaling Technology HTScan VEGFR-2 Kinase Assay Kit; host or cells: baculovirus expression system
T1 sequence (P35968 789-1356): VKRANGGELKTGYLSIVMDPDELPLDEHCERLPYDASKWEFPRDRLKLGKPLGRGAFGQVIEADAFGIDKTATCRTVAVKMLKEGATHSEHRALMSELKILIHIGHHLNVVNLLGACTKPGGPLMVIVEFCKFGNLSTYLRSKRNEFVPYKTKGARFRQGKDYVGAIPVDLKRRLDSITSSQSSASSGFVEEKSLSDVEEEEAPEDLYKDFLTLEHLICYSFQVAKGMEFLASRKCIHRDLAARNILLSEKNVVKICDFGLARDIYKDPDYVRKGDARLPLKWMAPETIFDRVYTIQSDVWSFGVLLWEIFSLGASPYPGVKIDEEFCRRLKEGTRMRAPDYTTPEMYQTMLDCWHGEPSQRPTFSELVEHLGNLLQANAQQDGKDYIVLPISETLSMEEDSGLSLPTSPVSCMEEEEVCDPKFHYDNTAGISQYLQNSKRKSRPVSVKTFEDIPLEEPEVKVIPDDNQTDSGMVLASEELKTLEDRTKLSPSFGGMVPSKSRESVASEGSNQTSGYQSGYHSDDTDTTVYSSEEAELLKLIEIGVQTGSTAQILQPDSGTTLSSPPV
Method: Azaazulene Compounds of this invention were treated for their efficacy in inhibiting activities of FLT-3, c-KIT and KDR kinases by biochemical DELFIA (Dissociation Enhanced Lanthanide FIA) assays according to the procedure described below. The assays were conducted by, Division of Cell Engineering, Biomedical Engineering Research Laboratories, Industrial Technology Research Institute, Bldg. 53, 195, sec. 4, Chung Hsing Rd. Chutung, Hsinchu, Taiwan 310, R.O.C.
The KDR assay was conducted following the protocol described in Protocol for HTScan™ VEGFR-2 Kinase Assay Kit (Cell Signaling Technology™).

[1] = system: MV4-11 (FLT3-ITD) subcutaneous tumor xenograft; test: MV4-11 subcutaneous tumor xenograft model; assay type: in vivo, BALB/c nude mice; conditions: for tumor complete regression of all mouse: oral gavage
Method: The procedures for establishing tumor xenografts and the dosing of B26 were carried out and accordance with ITRI institutional animal care and use committee in an IACUC. Female BALB/c nude mice (6 to 8 weeks old) were purchased from BioLASCO Co., Ltd. (Taipei, Taiwan). Female BALB/c nude mice were implanted subcutaneously in the right flank with 1×10^7 MV4-11 (FLT3-ITD) cells per mice. Treatments were initiated when tumors were 150 to 200 mm^3 in size. Mice were randomly assigned into cohorts (typically 4 mice per group for efficacy studies). B26 (50 and 150 mg/kg, bid.) and vehicle were given via oral gavage for 14 days from the 16th day after inoculation. Tumor volumes were assessed everyday and body weights were assessed two times weekly. Caliper measurements of tumors were converted into mean tumor volume using the formula: 0.5×[length×(width)^2].
Compound B26 of this invention is a novel and potent FLT3 inhibitor with promising anti-tumor and anti-leukemia activity.

FLT-3 kinase = target: T2, FLT-3 kinase (Homo sapiens, UniProt P36888); test: FLT-3 kinase DELFIA assay (HTScan FLT-3 Kinase Assay Kit); assay type: biochemical; conditions: 20 uM ATP
T2 construct: human FLT-3 (Arg571-Ser993); GST (N); purchased Cell Signaling Technology HTScan FLT-3 Kinase Assay Kit; host or cells: baculovirus expression system
T2 sequence (P36888 571-993): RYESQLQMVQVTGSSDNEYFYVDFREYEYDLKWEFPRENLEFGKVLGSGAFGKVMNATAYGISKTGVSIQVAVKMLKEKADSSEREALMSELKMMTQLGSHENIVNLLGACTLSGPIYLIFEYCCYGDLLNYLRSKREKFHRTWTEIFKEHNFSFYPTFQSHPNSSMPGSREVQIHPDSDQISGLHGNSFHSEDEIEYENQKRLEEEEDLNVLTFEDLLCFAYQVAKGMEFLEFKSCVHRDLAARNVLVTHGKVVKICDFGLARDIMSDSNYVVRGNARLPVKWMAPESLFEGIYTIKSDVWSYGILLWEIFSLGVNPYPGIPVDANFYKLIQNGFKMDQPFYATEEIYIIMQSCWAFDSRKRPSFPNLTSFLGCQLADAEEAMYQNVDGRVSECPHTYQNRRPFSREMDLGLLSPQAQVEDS

[2] = system: MV4-11 (FLT3-ITD) cell line; test: In vitro cell activity assay (MTT cell viability, 72 hours); assay type: cell-based; conditions: Homo sapiens, 72 hours at 37° C., 10,000 cells per well, read-out: IC50 against MV4-11
Method in brief: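 Compound serial dilutions applied to MV4-11 (FLT3-ITD) cells, 10,000 per well, for 72 hours at 37° C. Viability by MTT, formazan dissolved in DMSO, absorbance at 600 nm; IC50 by nonlinear regression as concentration halving absorbance versus untreated cells.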

CN1CCN(c2ccc3[nH]c(-c4c5cccccc-5[nH]c4=O)nc3c2)CC1 [Compound B26]
inhibition at 1 µM (FLT3): 95% | inhibition at 1 µM (FGFR3): 62% | inhibition at 1 µM (FGFR1): 54% | inhibition at 1 µM (BLK): 52% | inhibition at 1 µM (RET): 81% | inhibition at 1 µM (AMPK A2/B1/G1): 70% | inhibition at 1 µM (LYN A): 57% | inhibition at 1 µM (FLT4 (VEGFR3)): 50% | inhibition at 1 µM (KIT): 61% | inhibition at 1 µM (FGFR3 K650E): 47% | inhibition at 1 µM (RET Y791F): 79% | inhibition at 1 µM (KDR (VEGFR2)): 64% | inhibition at 0.1 µM (KDR kinase; 0.1 uM compound, read-out: Kinases inhibitory activities against KDR kinase, 0.1 uM): 71.3% | inhibition at 1 µM (KDR kinase; 1 uM compound, read-out: Kinases inhibitory activities against KDR kinase, 1 uM): 96.9% | tumor complete regression of all mouse ([1]; 50 mg/kg (bid)): 9 days | tumor complete regression of all mouse ([1]; 150 mg/kg (bid)): 7 days | antitumor effect ([1]; oral, 50 or 150 mg/kg bid for 14 days): potent and significant antitumor effect in a dose-dependent manner | inhibition at 0.1 µM (FLT-3 kinase; 0.1 uM compound): 45.6% | inhibition at 1 µM (FLT-3 kinase; 1 uM compound): 91.2% | IC50 [2]: 21.1 nM
